# Measurements published in patent publication US20230143604A1, “QW DOSING OF GIP RECEPTOR AGONIST PEPTIDE COMPOUNDS AND USES THEREOF” (TAKEDA PHARMACEUTICAL COMPANY LIMITED, priority 2020, published 2023).
# Starred links: 1 amine or outer side, 2 acyl side, 3 side chain; linkers in the order of their positions; H or OH if unused. Non-standard residues stand in square brackets, D forms with d. Residues, ends and D or L forms follow the SMILES beside them. Groups on a side chain read outwards from the residue. *: point of attachment. C18 diacid = O=C(O)CCCCCCCCCCCCCCCCC(=O)*; C17 diacid = O=C(O)CCCCCCCCCCCCCCCC(=O)*; γGlu = O=C(O)[C@H](CCC(=O)[*:2])N[*:1]; NMeY = CN[C@@H](Cc1ccc(O)cc1)C(=O)O; AEEA = NCCOCCOCC(=O)O; Aib = CC(C)(N)C(=O)O
# Test: physchem
# Procedure, shortened: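 3 mg of peptide treated with 100 μL portions of 200 mM phosphate buffer pH 7.4, sonicating/vortexing up to 1 min, with further buffer added until fully dissolved. Solubility then quantified by HPLC.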
# [1] = pH 7.4, aqueous buffer, pH 7.4 Phosphate Buffer - Solubility, 200 mM Phosphate buffer pH 7.4
# [2] = pH 7.4, solubility in phosphate buffer at pH 7.4, 200 mM phosphate buffer pH 7.4
Compound,"solubility (pH 7.4, aqueous buffer) [mg/mL]",solubility (pH 7.4) [mg/mL],solubility [1] [mg/mL],solubility [2] [mg/mL]
CC[C@H](C)[C@H](NC(=O)[C@H](CO)NC(=O)[C@H](Cc1ccc(O)cc1)NC(=O)[C@H](CC(=O)O)NC(=O)[C@H](CO)NC(=O)[C@@H](NC(=O)[C@H](Cc1ccccc1)NC(=O)[C@@H](NC(=O)CNC(=O)[C@H](CCC(=O)O)NC(=O)C(C)(C)NC(=O)[C@H](Cc1ccc(O)cc1)NC)[C@@H](C)O)[C@@H](C)CC)C(=O)N[C@@H](C)C(=O)N[C@@H](CC(C)C)C(=O)N[C@@H](CC(=O)O)C(=O)N[C@@H](CCCNC(=N)N)C(=O)N[C@H](C(=O)N[C@@H](Cc1c[nH]cn1)C(=O)N[C@@H](CCC(N)=O)C(=O)NC(C)(C)C(=O)N[C@@H](CC(N)=O)C(=O)N[C@@H](Cc1ccccc1)C(=O)N[C@H](C(=O)N[C@@H](CC(N)=O)C(=O)N[C@@H](Cc1c[nH]c2ccccc12)C(=O)N[C@@H](CC(C)C)C(=O)N[C@@H](CC(C)C)C(=O)N[C@@H](C)C(=O)N[C@@H](CCC(N)=O)C(=O)N[C@@H](CCCCNC(=O)COCCOCCNC(=O)COCCOCCNC(=O)CC[C@H](NC(=O)CCCCCCCCCCCCCCCCC(=O)O)C(=O)O)C(=O)O)C(C)C)[C@@H](C)CC [Compound 248] (H-[NMeY][Aib]EGTFISDYSIALDRIHQ[Aib]NFVNWLLAQK([AEEA-AEEA-γGlu-C18 diacid])-OH; C-terminus assumed),≥ 6.8,–,–,–
CC[C@H](C)[C@H](NC(=O)[C@H](CCCCN)NC(=O)[C@H](CC(=O)O)NC(=O)[C@H](CC(C)C)NC(=O)[C@H](C)NC(=O)[C@@H](NC(=O)[C@H](CO)NC(=O)[C@H](Cc1ccc(O)cc1)NC(=O)[C@H](CC(=O)O)NC(=O)[C@H](CO)NC(=O)[C@@H](NC(=O)[C@H](Cc1ccccc1)NC(=O)[C@@H](NC(=O)CNC(=O)[C@H](CCC(=O)O)NC(=O)C(C)(C)NC(=O)[C@@H](N)Cc1ccc(O)cc1)[C@@H](C)O)[C@@H](C)CC)[C@@H](C)CC)C(=O)N[C@@H](C)C(=O)N[C@@H](CCC(N)=O)C(=O)N[C@@H](CCC(N)=O)C(=O)N[C@@H](CCCCNC(=O)COCCOCCNC(=O)COCCOCCNC(=O)CC[C@H](NC(=O)CC[C@H](NC(=O)CCCCCCCCCCCCCCCC(=O)O)C(=O)O)C(=O)O)C(=O)N[C@@H](Cc1ccccc1)C(=O)N[C@H](C(=O)N[C@@H](CCC(=O)O)C(=O)N[C@@H](Cc1c[nH]c2ccccc12)C(=O)N[C@@H](CC(C)C)C(=O)N[C@@H](CC(C)C)C(=O)N[C@@H](C)C(=O)N[C@@H](CCC(N)=O)C(=O)N[C@@H](CCCNC(=N)N)C(=O)NCC(=O)O)C(C)C [Compound 142] (H-Y[Aib]EGTFISDYSIALDKIAQQK([AEEA-AEEA-γGlu-γGlu-C17 diacid])FVEWLLAQRG-OH),≥ 30,≥ 15,–,–
CC[C@H](C)[C@H](NC(=O)[C@H](CCCNC(=N)N)NC(=O)[C@H](CC(=O)O)NC(=O)[C@H](CCCCNC(=O)CNC(=O)CNC(=O)CNC(=O)CNC(=O)CNC(=O)CCCCCCCCCCCCCCCCC(=O)O)NC(=O)[C@H](C)NC(=O)[C@@H](NC(=O)[C@H](CO)NC(=O)[C@H](Cc1ccc(O)cc1)NC(=O)[C@H](CC(=O)O)NC(=O)[C@H](CO)NC(=O)[C@@H](NC(=O)[C@H](Cc1ccccc1)NC(=O)[C@@H](NC(=O)CNC(=O)[C@H](CCC(=O)O)NC(=O)C(C)(C)NC(=O)[C@H](Cc1ccc(O)cc1)NC)[C@@H](C)O)[C@@H](C)CC)[C@@H](C)CC)C(=O)N[C@@H](C)C(=O)N[C@@H](CCC(N)=O)C(=O)N[C@@H](CCC(N)=O)C(=O)N[C@@H](CC(=O)O)C(=O)N[C@@H](Cc1ccccc1)C(=O)N[C@H](C(=O)N[C@@H](CC(N)=O)C(=O)N[C@@H](Cc1c[nH]c2ccccc12)C(=O)N[C@@H](CC(C)C)C(=O)N[C@@H](CC(C)C)C(=O)N[C@@H](C)C(=O)N[C@@H](CCC(N)=O)C(=O)N[C@@H](CCCNC(=N)N)C(=O)N1CCC[C@H]1C(=O)N[C@@H](CO)C(=O)N[C@@H](CO)C(=O)NCC(=O)O)C(C)C [Compound 285],< 6,–,–,–
CC[C@H](C)[C@H](NC(=O)[C@H](CO)NC(=O)[C@H](Cc1ccc(O)cc1)NC(=O)[C@H](CC(=O)O)NC(=O)[C@H](CO)NC(=O)[C@@H](NC(=O)[C@H](Cc1ccccc1)NC(=O)[C@@H](NC(=O)CNC(=O)[C@H](CCC(=O)O)NC(=O)C(C)(C)NC(=O)[C@H](Cc1ccc(O)cc1)NC)[C@@H](C)O)[C@@H](C)CC)C(=O)N[C@@H](C)C(=O)N[C@@H](CCCCNC(=O)CNC(=O)CNC(=O)CNC(=O)CNC(=O)CC[C@H](NC(=O)CCCCCCCCCCCCCCCCC(=O)O)C(=O)O)C(=O)N[C@@H](CC(=O)O)C(=O)N[C@@H](CCCNC(=N)N)C(=O)NC(C)(C)C(=O)N[C@@H](C)C(=O)N[C@@H](CCC(N)=O)C(=O)NC(C)(C)C(=O)N[C@@H](CC(=O)O)C(=O)N[C@@H](Cc1ccccc1)C(=O)N[C@H](C(=O)N[C@@H](CC(N)=O)C(=O)N[C@@H](Cc1c[nH]c2ccccc12)C(=O)N[C@@H](CC(C)C)C(=O)N[C@@H](CC(C)C)C(=O)N[C@@H](C)C(=O)N[C@@H](CCC(N)=O)C(=O)N[C@@H](CCCCN)C(=O)NCC(=O)O)C(C)C [Compound 80] (H-[NMeY][Aib]EGTFISDYSIAK([Gly-Gly-Gly-Gly-γGlu-C18 diacid])DR[Aib]AQ[Aib]DFVNWLLAQKG-OH),≥ 30,≥ 15,–,–
CC[C@H](C)[C@H](NC(=O)[C@H](Cc1ccccc1)NC(=O)[C@@H](NC(=O)CNC(=O)[C@H](CCC(=O)O)NC(=O)C(C)(C)NC(=O)[C@@H](N)Cc1ccc(O)cc1)[C@@H](C)O)C(=O)N[C@@H](CO)C(=O)N[C@@H](CC(=O)O)C(=O)N[C@@H](Cc1ccc(O)cc1)C(=O)N[C@@H](CO)C(=O)N[C@H](C(=O)NC(C)(C)C(=O)N[C@@H](CCCCNC(=O)CNC(=O)CNC(=O)CNC(=O)CNC(=O)CNC(=O)CCCCCCCCCCCCCCCCC(=O)O)C(=O)N[C@@H](CC(=O)O)C(=O)N[C@@H](CO)C(=O)N[C@@H](C)C(=O)N[C@@H](C)C(=O)N[C@@H](CCC(N)=O)C(=O)NC(C)(C)C(=O)N[C@@H](CC(=O)O)C(=O)N[C@@H](Cc1ccccc1)C(=O)N[C@H](C(=O)N[C@@H](CC(N)=O)C(=O)N[C@@H](Cc1c[nH]c2ccccc12)C(=O)N[C@@H](CC(C)C)C(=O)N[C@@H](CC(C)C)C(=O)N[C@@H](C)C(=O)N[C@@H](CCC(N)=O)C(=O)N[C@@H](CCCNC(=N)N)C(=O)NCC(=O)O)C(C)C)[C@@H](C)CC [Compound 151],≥ 30,≥ 15,–,–
CC[C@H](C)[C@H](NC(=O)[C@H](CO)NC(=O)[C@H](Cc1ccc(O)cc1)NC(=O)[C@H](CC(=O)O)NC(=O)[C@H](CO)NC(=O)[C@@H](NC(=O)[C@H](Cc1ccccc1)NC(=O)[C@@H](NC(=O)CNC(=O)[C@H](CCC(=O)O)NC(=O)C(C)(C)NC(=O)[C@H](Cc1ccc(O)cc1)NC)[C@@H](C)O)[C@@H](C)CC)C(=O)N[C@@H](C)C(=O)N[C@@H](CC(C)C)C(=O)N[C@@H](CC(=O)O)C(=O)N[C@@H](CCCNC(=N)N)C(=O)NC(C)(C)C(=O)N[C@@H](C)C(=O)N[C@@H](CCC(N)=O)C(=O)NC(C)(C)C(=O)N[C@@H](CC(=O)O)C(=O)N[C@@H](Cc1ccccc1)C(=O)N[C@H](C(=O)N[C@@H](CC(N)=O)C(=O)N[C@@H](Cc1c[nH]c2ccccc12)C(=O)N[C@@H](CC(C)C)C(=O)N[C@@H](CC(C)C)C(=O)N[C@@H](C)C(=O)N[C@@H](CCC(N)=O)C(=O)N[C@@H](CCCCNC(=O)COCCOCCNC(=O)COCCOCCNC(=O)CC[C@H](NC(=O)CC[C@H](NC(=O)CCCCCCCCCCCCCCCCC(=O)O)C(=O)O)C(=O)O)C(=O)NCC(=O)O)C(C)C [Compound 61] (H-[NMeY][Aib]EGTFISDYSIALDR[Aib]AQ[Aib]DFVNWLLAQK([AEEA-AEEA-γGlu-γGlu-C18 diacid])G-OH),≥ 30,≥ 15,–,–
CC[C@H](C)[C@H](NC(=O)[C@H](Cc1ccccc1)NC(=O)[C@@H](NC(=O)CNC(=O)[C@H](CCC(=O)O)NC(=O)C(C)(C)NC(=O)[C@H](Cc1ccc(O)cc1)NC)[C@@H](C)O)C(=O)N[C@@H](CO)C(=O)N[C@@H](CC(=O)O)C(=O)N[C@@H](Cc1ccc(O)cc1)C(=O)N[C@@H](CO)C(=O)N[C@H](C(=O)NC(C)(C)C(=O)N[C@@H](CC(C)C)C(=O)N[C@@H](CC(=O)O)C(=O)N[C@@H](CCCNC(=N)N)C(=O)NC(C)(C)C(=O)N[C@@H](C)C(=O)N[C@@H](CCC(N)=O)C(=O)NC(C)(C)C(=O)N[C@@H](CCCCNC(=O)COCCOCCNC(=O)CC[C@H](NC(=O)CC[C@H](NC(=O)CCCCCCCCCCCCCCCCC(=O)O)C(=O)O)C(=O)O)C(=O)N[C@@H](Cc1ccccc1)C(=O)N[C@H](C(=O)N[C@@H](CC(N)=O)C(=O)N[C@@H](Cc1c[nH]c2ccccc12)C(=O)N[C@@H](CC(C)C)C(=O)N[C@@H](CC(C)C)C(=O)N[C@@H](C)C(=O)N[C@@H](CCC(N)=O)C(=O)N[C@@H](CO)C(=O)N1CCC[C@H]1C(=O)N[C@@H](CO)C(=O)N[C@@H](CO)C(=O)NCC(=O)N[C@@H](C)C(=O)N1CCC[C@H]1C(=O)N1CCC[C@H]1C(=O)N1CCC[C@H]1C(=O)N[C@@H](CO)C(N)=O)C(C)C)[C@@H](C)CC [Compound 93] (H-[NMeY][Aib]EGTFISDYSI[Aib]LDR[Aib]AQ[Aib]K([AEEA-γGlu-γGlu-C18 diacid])FVNWLLAQSPSSGAPPPS-NH2),–,–,≥ 60,≥ 15
CC[C@H](C)[C@H](NC(=O)[C@H](Cc1ccccc1)NC(=O)[C@@H](NC(=O)CNC(=O)[C@H](CCC(=O)O)NC(=O)C(C)(C)NC(=O)[C@H](Cc1ccc(O)cc1)NC)[C@@H](C)O)C(=O)N[C@@H](CO)C(=O)N[C@@H](CC(=O)O)C(=O)N[C@@H](Cc1ccc(O)cc1)C(=O)N[C@@H](CO)C(=O)N[C@H](C(=O)NC(C)(C)C(=O)N[C@@H](CC(C)C)C(=O)N[C@@H](CC(=O)O)C(=O)N[C@@H](CCCNC(=N)N)C(=O)NC(C)(C)C(=O)N[C@@H](C)C(=O)N[C@@H](CCC(N)=O)C(=O)NC(C)(C)C(=O)N[C@@H](CCCCNC(=O)COCCOCCNC(=O)CC[C@H](NC(=O)COCCOCCNC(=O)CC[C@H](NC(=O)CCCCCCCCCCCCCCCCC(=O)O)C(=O)O)C(=O)O)C(=O)N[C@@H](Cc1ccccc1)C(=O)N[C@H](C(=O)N[C@@H](CC(N)=O)C(=O)N[C@@H](Cc1c[nH]c2ccccc12)C(=O)N[C@@H](CC(C)C)C(=O)N[C@@H](CC(C)C)C(=O)N[C@@H](C)C(=O)N[C@@H](CCC(N)=O)C(=O)N[C@@H](CO)C(=O)N1CCC[C@H]1C(=O)N[C@@H](CO)C(=O)N[C@@H](CO)C(=O)NCC(=O)N[C@@H](C)C(=O)N1CCC[C@H]1C(=O)N1CCC[C@H]1C(=O)N1CCC[C@H]1C(=O)N[C@@H](CO)C(N)=O)C(C)C)[C@@H](C)CC [Compound 92] (H-[NMeY][Aib]EGTFISDYSI[Aib]LDR[Aib]AQ[Aib]K([AEEA-γGlu-AEEA-γGlu-C18 diacid])FVNWLLAQSPSSGAPPPS-NH2),–,–,≥ 60,≥ 15
